Results as given in patent US20240199618A1, “NOVEL N-ACYL-[3-SUBSTITUTED]-[8-SUBSTITUTED]-5,6-DIHYDRO-[1,2,4]TRIAZOLO[4,3-a]PYRAZINES AS SELECTIVE NK-3 RECEPTOR ANTAGONISTS, PHARMACEUTICAL COMPOSITION, METHODS FOR USE IN NK-3 RECEPTOR-MEDIATED DISORDERS” (Ogeda SA, priority 2013, published 2024).

Columns and labels:
[1] = tested on: serum Total Testosterone, LH, FSH in women with PCOS; assay: Phase 2a clinical trial, PolyCystic Ovary Syndrome (PCOS); type: in vivo, human
Procedure: Clinical Evaluation of Compound n^o 5 for the Treatment of PolyCystic Ovary Syndrome (PCOS)
Objectives: The study objectives are to evaluate the effect of compound n^o 5 on the serum levels of Total Testosterone (TT), Luteinizing Hormone (LH), Follicle Stimulating Hormone (FSH) and LH:FSH ratio after 12 weeks of treatment.
Design and Setting: The Phase 2a clinical trial was conducted in 48 patients, divided over 2 treatment groups of 24 patients each. One group received placebo while the other group received 180 mg of compound n^o 5 once daily (QD) for a period of 12 weeks. The Phase 2a trial was double blind and randomized. […] The study was conducted on an ambulatory basis where patients were asked to visit the clinical site on the first day of dosing and at weeks 3, 6, 9 and 12 during the treatment period with a follow-up visit 2-3 weeks after conclusion of dosing.
Blood draws for LH, FSH and TT were taken every visit between 2 and 8 hours after drug intake (baseline and week 3-6-12). At week 9 the blood samples were taken in the morning before drug intake (i.e. at trough PK concentrations for compound n^o 5). These blood draws were the basis for assessing the primary (TT) and secondary (LH, FSH, LH:FSH ratio) endpoints. The primary endpoint of Total Testosterone was measured according to GLP using an LC-MS/MS method.
PCOS is typically characterized by excessive ovarian androgen production, failure of ovulation, and slightly enlarged ovaries with numerous peripheral small follicles that appear as cysts. The disorder is commonly accompanied by infertility. Typically, the clinical features of PCOS are associated with hypersecretion of LH and androgens (TT) but with normal serum concentrations of FSH hormone. Laboratory examinations reveal elevated TT levels in about 50% of the patients, accompanied by an elevated LH:FSH ratio (>2) due to the imbalanced secretion of both hormones (a ratio of 1 is considered normal).

[2] = target: human NK-3 receptor (Homo sapiens (Human), UniProt P29371); assay: Aequorin functional assay with human NK-3 receptor (antagonist testing vs NKA); type: cell-based; settings: CHO cells, NKA at EC80 (3 nM); read-out: Functional assay: Aequorin assay with human NK-3 receptor hNK-3-AEQ (antagonist IC50)
Sequence of human NK-3 receptor (P29371 whole entry): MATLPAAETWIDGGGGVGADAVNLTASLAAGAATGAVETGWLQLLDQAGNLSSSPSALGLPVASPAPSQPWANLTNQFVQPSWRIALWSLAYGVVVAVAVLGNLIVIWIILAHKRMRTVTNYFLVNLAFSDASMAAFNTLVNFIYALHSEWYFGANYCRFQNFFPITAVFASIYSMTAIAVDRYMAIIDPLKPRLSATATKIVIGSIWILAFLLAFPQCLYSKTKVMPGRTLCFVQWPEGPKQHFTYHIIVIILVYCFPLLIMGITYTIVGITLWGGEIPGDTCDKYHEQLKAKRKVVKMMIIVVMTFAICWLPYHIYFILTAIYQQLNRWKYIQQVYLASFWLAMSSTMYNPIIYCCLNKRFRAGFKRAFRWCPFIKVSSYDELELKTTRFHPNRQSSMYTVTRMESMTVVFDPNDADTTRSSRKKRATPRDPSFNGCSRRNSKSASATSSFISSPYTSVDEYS
In short: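 CHO cells co-expressing human NK-3 receptor and apoaequorin were pre-incubated 3 min with compound, then challenged with NKA at EC80 (3 nM). Coelenterazine-dependent luminescence was integrated over 90 s, and antagonism was derived from concentration-dependent inhibition of the calcium response.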

[3] = tested on: plasma protein; assay: Determination of plasma protein binding (equilibrium dialysis, RED); type: in vitro ADME; settings: 4 hours at 37° C.
[4] = tested on: plasma estradiol; assay: Estradiol circulating level in female rats; type: in vivo, rat; settings: 10 mg/kg b.i.d. oral, 10 days, FIG. 3
Procedure: Effect of compounds of the invention on Estradiol circulating level in female rats The aim of this study was to evaluate the effect of compounds of the invention on plasma estradiol levels following oral administration at 10 mg/kg (b.i.d.) for a period of 10 days in female rats.
Briefly the experimental methods used for this study were as follows: Two groups of adult, female rats (Sprague-Dawley, ˜320 g) were treated in-phase with their individual estrous cycles. Thus, treatment was started in the proestrus phase (coincident with peak estradiol levels, as shown on Day 1 in FIG. 3) and rats were dosed twice daily (˜9 h30 and 17 h30) by oral administration either with a compound of the invention at 10 mg/kg or with the vehicle for the control group. Compounds of the invention were prepared in a dose formulation of pyrogen-free water with 0.5% methylcellulose. Estradiol levels were determined for all groups by ELISA performed on plasma samples derived from blood collections taken at 30 minutes before the daily, 9 h30 test article administration on all days presented in FIG. 3.

[5] = tested on: body temperature (pyrogenic response to feeding); assay: Thermoregulation in OVX ewes; type: in vivo, ewe; settings: 1 mg/kg intravenous bolus
Text: In Vivo Assay in OVX Ewes-Activity in Thermoregulation Experimental Methods: Evaluation of Thermoregulation in OVX Ewe […] After 4 months recovery, animals were acclimatised to housing in single pens for a period of 7 days with ad libitum access to water and […] lucerne hay. One day prior to experimentation, the animals received a jugular vein cannula ([…], Tuta Laboratories, Lane Cove, Australia). The cannulo were kept patent with heparinised saline. On the day of the experiment, compound n^o 5 of the present invention was formulated in physiological saline with 9% 2-hydroxypropyl-β-cyclodextrin at a concentration of 2 mg/mL. […] Animals were fed at 12 h00. Rectal temperatures were monitored with a probe at hourly intervals throughout the experiment, starting at 7 h40 and concluding at 15 h40.

Q: With `Cc1nsc(-c2nnc3n2CCN(C(=O)c2ccc(F)cc2)[C@@H]3C)n1` [Compound 5, (R)-(4-fluorophenyl)(8-methyl-3-(3-methyl-1,2,4-thiadiazol-5-yl)-5,6-dihydro-[1,2,4]triazolo[4,3-a]pyrazin-7(8H)-yl)methanone] as the compound, how does the FSH secretion ([1]; 180 mg QD, women with PCOS) read?
A: preserved

Q: What about the LH ([1]; 180 mg QD, women with PCOS) of the same compound?
A: significant decrease

Q: What about the “LH:FSH in comparison of placebo” value ([1]; 180 mg QD, women with PCOS) of the same compound?
A: significantly reduced

Q: And the “TT in comparison of placebo” value ([1]; 180 mg QD, women with PCOS)?
A: significantly reduced

Q: And the “Total Testosterone (mean)” value ([1]; Baseline, 180 mg QD group)?
A: 2.16 nmol/L

Q: And the “Total Testosterone (mean)” value ([1]; Week 6, 180 mg QD oral)?
A: 1.41 nmol/L

Q: What about the “Total Testosterone (mean)” value ([1]; Week 12, 180 mg QD oral) of the same compound?
A: 1.39 nmol/L

Q: What about the IC50 [2] of the same compound?
A: 18 nM

Q: What about the “Exposure (% rPPB), bound drug fraction to plasma protein” value [3] of the same compound?
A: 22%

Q: What about the estradiol levels [4] of the same compound?
A: significantly decreased

Q: And the “pyrogenic response to feeding” value [5]?
A: not observed

Q: And the “body temperature at the 12 h40 time point” value ([5]; after feeding at 12 h00, mean±SEM)?
A: 38.9±0.2 °C
